A short description of this data set: Extractable percent of unreacted silicone, second evaluation (cure rate with active agents). Conditions: for Cure Rate After 3 Min. (%) / Cure Rate After 120 Min. (%): active agent added to Dispersion 1 aged 1 week at 45° C., slope of extractable plot, lower values = higher reactivity; for effect of active agent on cure (in words): active agent in Dispersion 1, after 120 minutes. Type of data set: physicochemical. On the procedure:
After ageing, the samples are spread out onto silicon free Glassine paper and the water is allowed to evaporate such that the vinyl PDMS and SiH siloxane reaction and form films. More specifically, about 2 grams of each sample is spread using a 1.2 g/m^2 bar equipped with an automatic film application (type 4340 from Braive Instruments). At times from zero to 120 minutes, the percent of vinyl PDMS and SiH siloxane is determined using 30 ml of methylisobutyl ketone (MIBK). Additionally, silicone concentration on the Glassine paper resulting from reacted vinyl PDMS and SiH siloxane is determined by XRF using an Oxford Lab X-3000. The percent unreacted/extractable vinyl PDMS and SiH siloxane is plotted in an extractable plot set forth as FIG. 3. Additional samples of Dispersion 1 are aged for 1 week at 45° C. […] At this point, films are formed from these samples to determine an effect of the active agents on curing and reaction of the vinyl PDMS and SiH siloxane. More specifically, for these samples, an additional extractable plot is generated (not shown in the Figures) using the same method as described above. […] The results of these evaluations are set forth in Table 1 immediately below with lower values representing higher reactivity.

Turning to `O=C(O)c1cccnc1` [Vitamin B3, vitamin B3], the “Cure Rate After 3 Min. (%)” value came to 43.3%, the “Cure Rate After 120 Min. (%)” value stood at 21.8% and the “effect of active agent on cure (in words)” value is “slight inhibition of the cure”.

Consider `CCN(CC)CC(=O)Nc1c(C)cccc1C` [Lidocaine, lidocaine], for which the “Cure Rate After 3 Min. (%)” value is listed as 21.1% and the “Cure Rate After 120 Min. (%)” value was determined as 4.9%.

For the compound `O=C(O)c1ccccc1O` [Salicylic acid, salicylic acid], the “Cure Rate After 3 Min. (%)” value stood at 36.5%, the “Cure Rate After 120 Min. (%)” value is listed as 12.1% and the “effect of active agent on cure (in words)” value is listed as “slight inhibition of the cure”.

As for `[Cl][Ag]` [AgCl], the “Cure Rate After 3 Min. (%)” value worked out at 16.4% and the “Cure Rate After 120 Min. (%)” value was 3.3%.

Regarding `CC(C)(CO)[C@@H](O)C(=O)NCCCO` [Dexpanthenol, dexpanthenol], the “Cure Rate After 3 Min. (%)” value was found to be 18.4% and the “Cure Rate After 120 Min. (%)” value amounted to 4.8%.

In the case of `Clc1ccccc1C(c1ccccc1)(c1ccccc1)n1ccnc1` [Clotrimazol, clotrimazol], the “Cure Rate After 3 Min. (%)” value is 25.7% and the “Cure Rate After 120 Min. (%)” value was 5.4%.

Consider `Cn1c(=O)c2c(ncn2C)n(C)c1=O` [Caffeine, caffeine], for which the “Cure Rate After 3 Min. (%)” value stood at 31.7% and the “Cure Rate After 120 Min. (%)” value is 8.5%.

(Values after patent US20130287856A1, “Drug Delivery Dispersion And Film Formed Therefrom” (priority 2010, published 2013).)
